This passage reports IC50 results from publication PMC12064818, “A general assay platform to study protein pharmacology using ligand-dependent structural dynamics” (Nature Communications, 2025).

This assay has as its target T1, FLuc-C-HiBiT (Photinus pyralis, UniProt P08659).
T1 construct: firefly luciferase with C-terminal HiBiT tag, E. coli expressed
Nature of the assay: biochemical. The settings on record: enzyme activity, 10 uM ATP; read-out: IC50 or SDR50 (mM) / FLuc E.

Each structure is given as a SMILES string.

T1 sequence (P08659 whole entry, looked up): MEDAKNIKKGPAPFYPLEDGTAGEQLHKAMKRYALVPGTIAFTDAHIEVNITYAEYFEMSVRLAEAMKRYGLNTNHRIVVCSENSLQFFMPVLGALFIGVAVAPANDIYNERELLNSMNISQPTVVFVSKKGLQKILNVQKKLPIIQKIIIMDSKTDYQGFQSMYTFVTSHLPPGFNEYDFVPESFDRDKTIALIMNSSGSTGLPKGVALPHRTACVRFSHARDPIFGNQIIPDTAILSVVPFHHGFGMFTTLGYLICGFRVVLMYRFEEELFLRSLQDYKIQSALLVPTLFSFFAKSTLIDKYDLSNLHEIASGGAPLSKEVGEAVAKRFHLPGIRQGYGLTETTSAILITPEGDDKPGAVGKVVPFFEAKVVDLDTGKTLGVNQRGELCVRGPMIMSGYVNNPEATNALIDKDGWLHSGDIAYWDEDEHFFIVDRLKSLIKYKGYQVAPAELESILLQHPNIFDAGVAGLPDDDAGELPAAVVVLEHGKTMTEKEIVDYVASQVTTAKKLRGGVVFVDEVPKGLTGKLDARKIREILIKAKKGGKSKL

As to `COc1cccc(-c2cccc(COc3cnc4c(ccn4CC(=O)O)c3)c2)c1` [NCGC00418182-01], the IC50 came out at 0.0161 mM.
With `CC(C)Oc1cccc(-c2cccc(COc3cnc4c(ccn4CC(=O)O)c3)c2)c1` [NCGC00418183-01], the IC50 was 0.018 mM.
For `CC(=O)Nc1cccc(-c2cccc(CCOc3cnc4c(ccn4CC(=O)O)c3)c2)c1` [NCGC00418203-01] the value was 0.0161 mM; for `COc1ccc(-c2cccc(COc3cnc4c(ccn4CC(=O)O)c3)c2)c(C)c1` [NCGC00418229-01], above 0.03 mM.
On to `Cc1ccc(-c2cccc(COc3cnc4c(ccn4CC(=O)O)c3)c2)cc1C` [NCGC00418247-01], for which the IC50 came to 0.018 mM.
On to `Cc1ccc(-c2cccc(COc3cnc4c(ccn4CC(=O)O)c3)c2)c(C)c1` [NCGC00418282-01], for which the IC50 is above 0.03 mM.
For `O=C(Nc1nc2ccccc2s1)c1ccc2c(c1)OCCN(CCC(F)(F)F)C2` [NCGC00418456-01] the value was 0.0202 mM.
Turning to `CN1Cc2ccc(C(=O)NCCOc3ccccc3)cc2OCC1=O` [NCGC00418504-01], the IC50 turned out to be 0.0202 mM.
In the case of `Cc1cnc(NC(=O)c2ccc3c(c2)OCC(=O)N(C)C3)s1` [NCGC00418511-01], the IC50 was 0.0143 mM.
On to `Cc1csc(NC(=O)c2ccc3c(c2)OCC(=O)N(C)C3)n1` [NCGC00418513-01], for which the IC50 worked out at 0.018 mM.
For `COCCN1CCC2(C1)CN(C)c1ccc(C(=O)Nc3ccc(F)cc3)cc12` (stereo not drawn) [NCGC00419287-01] the value was 0.00718 mM; for `COCCN1CCC2(C1)CN(C)c1ccc(C(=O)Nc3ccccc3)cc12` (stereo not drawn) [NCGC00419345-01], 0.00114 mM; for `COCCN1CCC2(C1)CN(C)c1ccc(C(=O)Nc3ccn(C)n3)cc12` (stereo not drawn) [NCGC00419376-01], 0.0101 mM.
Take `CC(C)(Oc1nn(CC2CC2)c2ccc(CN3CCCC3)cc12)C(=O)NC1CCOCC1` [NCGC00419513-01]: the IC50 was above 0.03 mM.
Turning to `CN1CCC(NC(=O)C(C)(C)Oc2nn(Cc3ncccn3)c3ccccc23)CC1` [NCGC00419638-01], the IC50 was above 0.03 mM.
For `C[C@H](C(=O)N1CCOCC1)C1CC[C@@]2(C)Cc3sc(-c4ccccc4)nc3[C@@H](C)[C@@H]2[C@H]1O` (stereo partly drawn) [NCGC00421021-01], the IC50 amounted to 0.00351 mM.
Take `C[C@H](C(=O)NCCN1CCOCC1)C1CC[C@@]2(C)Cc3sc(-c4ccccc4)nc3[C@@H](C)[C@@H]2[C@H]1O` (stereo partly drawn) [NCGC00421022-01]: the IC50 was found to be 0.000989 mM.
On to `CSCC(=O)N[C@H]1CCN2C(=O)c3cc(/C=C/c4ccccc4)ccc3NC(=O)[C@H]12` [NCGC00421159-01], for which the IC50 stood at 0.0143 mM.
Consider `COc1ccc(/C=C/c2ccc3c(c2)C(=O)N2CC[C@H](NC(=O)COCC(=O)O)[C@H]2C(=O)N3)cc1` [NCGC00421238-01], for which the IC50 was 0.00989 mM.
For `C[C@H](C(=O)N(C)CCC#N)C1CC[C@@]2(C)Cc3sc(NC(=O)c4cccn4C)nc3[C@@H](C)[C@@H]2[C@H]1O` (stereo partly drawn) [NCGC00421252-01] the value was 0.007 mM.
Consider `C=CCN(C)C(=O)[C@@H](C)C1CC[C@@]2(C)Cc3sc(NC(=O)CN(C)C)nc3[C@@H](C)[C@@H]2[C@H]1O` (stereo partly drawn) [NCGC00421253-01], for which the IC50 was above 0.03 mM.
As for `Cc1nn(-c2ccc(C(C)C)cc2)c(C)c1[C@@H]1C=C[C@@H](NC(=O)Nc2ccccc2)C1` [NCGC00421405-01], the IC50 stood at 0.018 mM.
With `COc1ccc(NC(=O)N[C@@H]2C=C[C@@H](c3c(C)nn(-c4ccc(C(C)C)cc4)c3C)C2)cc1` [NCGC00421407-01], the IC50 was above 0.03 mM.
Consider `COc1ccc(-n2nc(C)c([C@@H]3C=C[C@@H](NC(=O)NCc4ccccc4)C3)c2C)cc1` [NCGC00421411-01], for which the IC50 worked out at 0.0064 mM.
For the compound `Cc1nn(-c2ccc(C(C)C)cc2)c(C)c1[C@@H]1C=C[C@@H](NC(=O)CC2(CC(=O)O)CCCC2)C1` [NCGC00421413-01], the IC50 is above 0.03 mM.
Take `O=C(N[C@H]1CCN2C(=O)c3cc(/C=C/c4ccc(O)cc4)ccc3NC(=O)[C@H]12)c1cnccn1` [NCGC00421527-01]: the IC50 is above 0.03 mM.
Consider `C[C@@H]1C(=O)O[C@H]2[C@H]1CC[C@@]1(C)Cc3sc(Nc4cccnc4)nc3[C@@H](C)[C@H]21` [NCGC00421621-01], for which the IC50 is 0.000453 mM.
For the compound `C[C@@H]1C(=O)O[C@H]2[C@H]1CC[C@@]1(C)Cc3sc(NC(=O)c4c(F)cccc4F)nc3[C@@H](C)[C@H]21` [NCGC00421654-01], the IC50 was 0.00989 mM.
Turning to `COc1cccc(Nc2nc(-c3ccccc3)no2)c1` [NCGC00422289-01], the IC50 was 0.00624 mM.
For the compound `c1ccc(CNc2nc(-c3ccccc3)no2)cc1` [NCGC00422290-01], the IC50 is 0.0176 mM.
For the compound `CCOC(=O)c1cccc(Nc2nc(-c3ccccc3)no2)c1` [NCGC00422292-01], the IC50 was determined as 0.00624 mM.
Turning to `Fc1ccccc1Nc1nc(-c2ccccc2)no1` [NCGC00422293-01], the IC50 came to 0.0007 mM.
Turning to `Fc1cccc(Nc2nc(-c3ccccc3)no2)c1` [NCGC00422294-01], the IC50 was 0.007 mM.
For `Fc1ccc(Nc2nc(-c3ccccc3)no2)cc1` [NCGC00422295-01] the value was 0.00624 mM.
`CCOc1ccc(Nc2nc(-c3ccccc3)no2)cc1` [NCGC00422297-01]: the IC50 was 0.00495 mM.
Consider `COc1ccc(Nc2nc(-c3ccccc3F)no2)cc1OC` [NCGC00422302-01], for which the IC50 amounted to 0.00351 mM.
For `CCc1ccc(Nc2nc(-c3ccccc3F)no2)cc1` [NCGC00422308-01] the value was 0.00624 mM; for `Fc1ccc(Nc2nc(-c3ccccc3F)no2)cc1` [NCGC00422310-01], 0.00989 mM; for `Cc1cc(C)cc(Nc2nc(-c3ccccc3F)no2)c1` [NCGC00422314-01], 0.00624 mM.
Consider `COc1ccc(-c2noc(Nc3ccc(OC)c(OC)c3)n2)cc1` [NCGC00422322-01], for which the IC50 came out at 0.0111 mM.
On to `COc1ccc(-c2noc(N3CCc4ccccc43)n2)cc1` [NCGC00422328-01], for which the IC50 worked out at 0.00313 mM.
In the case of `COc1ccc(-c2noc(Nc3ccc(C)c(C)c3)n2)cc1` [NCGC00422330-01], the IC50 was 0.00989 mM.
For `COc1ccc(-c2noc(Nc3ccc4c(c3)OCCO4)n2)cc1` [NCGC00422336-01] the value was 0.00157 mM; for `COc1ccc(-c2noc(Nc3ccccc3)n2)cc1` [NCGC00422340-01], 0.00221 mM; for `CCc1ccccc1Nc1nc(-c2cccc(OC)c2OC)no1` [NCGC00422354-01], 0.0111 mM.
In the case of `COc1cccc(-c2noc(Nc3ccc(OC)c(OC)c3)n2)c1` [NCGC00422366-01], the IC50 was 0.00394 mM.
As for `COc1cccc(-c2noc(Nc3ccc4c(c3)OCO4)n2)c1` [NCGC00422370-01], the IC50 was determined as 0.00624 mM.
For `COc1cccc(-c2noc(Nc3ccc4c(c3)OCCO4)n2)c1` [NCGC00422372-01] the value was 0.00157 mM; for `COc1ccc(Nc2nc(-c3cccc(OC)c3)no2)cc1` [NCGC00422374-01], 0.00785 mM; for `Cn1ccnc1C(O)c1cc2n(n1)CCN(c1ncnc3[nH]cnc13)C2` (stereo not drawn) [NCGC00422809-01], above 0.03 mM.
In the case of `COc1cccc(-n2cc(CN(C)c3ncncn3)cn2)c1` [NCGC00424283-01], the IC50 is above 0.03 mM.
For the compound `c1coc(-c2nc3nccc(-c4ccc5c(c4)OCCCO5)n3n2)c1` [NCGC00424571-01], the IC50 was 0.00176 mM.
Consider `Cc1ccc(NC(=O)N2CCC(CCNC(=O)C3CC3)CC2)cc1` [NCGC00424850-01], for which the IC50 stood at 0.0111 mM.
With `CCC(=O)NCCC1CCN(C(=O)Nc2ccc(C)cc2)CC1` [NCGC00424867-01], the IC50 was 0.0124 mM.
